Values quoted from earlier work in US12564203B2, “Coating composition comprising pH-sensitive polymer” (CJ CHEILJEDANG CORPORATION, priority 2020, dated 2026).

Conditions: degree of hydrophilicity (hydrophobicity) of an amino acid

With `N=C(N)NCCC[C@H](N)C(=O)O` [arginine] as the compound, how does the hydropathy index read?
The hydropathy index was −4.5.

With `CC[C@H](C)[C@H](N)C(=O)O` [isoleucine] as the compound, how does the hydropathy index read?
The hydropathy index was 4.5.

With `NCCCC[C@H](N)C(=O)O` [lysine] as the compound, how does the hydropathy index read?
The hydropathy index was −3.9.

For `CC(C)[C@H](N)C(=O)O` [valine], which hydropathy index is on record?
The hydropathy index was 4.2.
